Common to all, as to type: cell-based
The subject of one assay is MDA-MB231. Put plainly: MTT assay, MDA-MB231 breast cancer cells. The note with it: Homo sapiens, MDA-MB-231; 10 μM, 72 h after the treatment, MTT, mean of three independent experiments; read-out: Percentage of cell viability MDA-MB231. As to the method: (§1) The prepared compounds 1–126 were tested on three breast cancer cell lines namely, MDA-MB231, SKBR-3 and MCF-7 using MTT assay. SKBR-3 and MCF-7 cell lines are estrogen and progesterone hormone positive cell lines often used as a model for the hormone therapy.[18] MDA-MB231 is triple negative breast cancer cell line, which is negative to estrogen and progesterone receptors and human epidermal growth factor receptor 2, a perfect model for chemotherapy.[18] Initially, all the prepared compounds 1–126 were tested on these three cancer cell lines at the screening concentration (10 μM) and percentage of cell viability was calculated 72 h after the treatment (Table 1).
(§2) The growth inhibitory effect of the compounds was determined on breast tumor cell line (MDA-MB231, SKBR-3 and MCF-7) at different concentrations with methotrexate and nilotinib as positive controls (Table 2).
(§3) The cytotoxic activity of 6,N^2-diaryl-1,3,5-triazine-2,4-diamines (1–126) was evaluated against three breast carcinoma cell lines (MDA-MB231, SKBR-3, and MCF-7) and normal breast cell line (MCF-10A) by MTT assay.[22] All cells were obtained from the American Type Culture Collection and were grown in 10% fetal bovine serum and 1% pen-strep antibiotic supplemented media (DMEM for MDA-MB231 and SKBR-3, RPMI for MCF-7, and MEGM for MCF-10A). For MTT assay, 20 000 to 75 000 cells per mL (based on the doubling time for each cell line) were seeded in 96 well plates and incubated for 24 h at 37 °C in 5% CO2 incubator. Then, compounds at different concentrations were added followed by the incubation at 37 °C for 72 h. After that, MTT solution (0.5 mg mL^−1) was added and the plates were incubated for another 4 h. The supernatant was then discarded and 100 μL of DMSO was added to each well. The plates were then read by Tecan NanoQuant (model: infinite m200 pro) plate reader and absorbance was measured at 570 nm. GI50 values were calculated using sigmoidal concentration–response curves (see ESI ^†) generated using the GraphPad Prism 7 program. Three independent experiments were carried out and the data were represented as mean of the three experiments.

In another assay the test system is SKBR-3. Put plainly: MTT assay, SKBR-3 breast cancer cells. Particulars: Homo sapiens, SK-BR-3; 10 μM, 72 h after the treatment, MTT, mean of three independent experiments; read-out: Percentage of cell viability SKBR-3. As for the experimental part:
as §1, §2, §3

The next assay has as its system MCF-7. Briefly: MTT assay, MCF-7 breast cancer cells. The note with it: Homo sapiens, MCF7, 10 μM, 72 h after the treatment, mean of three independent experiments, read-out: Percentage of cell viability MCF-7. As for the experimental part:
as §1, §2, §3
In general terms: Tetrazolium dyes change colour on reduction, which living cells bring about.

Experimental findings from article PMC9050923, “6,N^2-Diaryl-1,3,5-triazine-2,4-diamines: synthesis, antiproliferative activity and 3D-QSAR modeling” (RSC Advances, 2020) are described below.

In the case of `Nc1nc(Nc2ccccc2Cl)nc(-c2ccc(Br)cc2)n1` [Compound 48], the results for the viability at 10 µM in the assay with MDA-MB231, in the assay on SKBR-3 and in the assay on MCF-7 were 90%, 93% and 100%, respectively.
In the same order, the values of `Nc1nc(Nc2ccc(Cl)cc2)nc(-c2ccc(Br)cc2)n1` [Compound 49] are 96%, 100% and 100%.
On the same counts, the results for `Cc1ccc(Nc2nc(N)nc(-c3ccc(Br)cc3)n2)cc1` [Compound 50] are 55%, 93% and 88%.
On to `COc1ccccc1Nc1nc(N)nc(-c2ccc(Br)cc2)n1` [Compound 51], for which the viability (in general, a per cent measure of how many cells are alive, often set against a control) at 10 µM in the assay with MDA-MB231 is 88%; with SKBR-3, 89%; in the assay on MCF-7 it was 96%.
In the same order, the values of `COc1ccc(Nc2nc(N)nc(-c3ccc(Br)cc3)n2)cc1` [Compound 52] are 56%, 91% and 100%.
On the same counts, the results for `Cc1cccc(-c2nc(N)nc(Nc3ccc(F)cc3)n2)c1` [Compound 53, N ^2-(4-Fluorophenyl)-6-(3-methylphenyl)-1,3,5-triazine-2,4-diamine] are 100%, 100% and 78%.
As to `Cc1cccc(-c2nc(N)nc(Nc3ccc(Cl)cc3)n2)c1` [Compound 54], the figures for the viability at 10 µM in the assay with MDA-MB231, with SKBR-3 and in the assay on MCF-7 were 100%, 93% and 76%, respectively.
Consider `Cc1cccc(-c2nc(N)nc(Nc3ccc(Br)cc3)n2)c1` [Compound 55], for which the values for the viability at 10 µM with MDA-MB231, in the assay on SKBR-3 and in the assay on MCF-7 were 83%, 96% and 75%, respectively.
In the same order, the values of `COc1ccc(Nc2nc(N)nc(-c3cccc(C)c3)n2)cc1` [Compound 57, N ^2-(4-Methoxyphenyl)-6-(3-methylphenyl)-1,3,5-triazine-2,4-diamine] are 91%, 90% and 75%.
In the same order, the values of `Cc1cccc(-c2nc(N)nc(Nc3ccc(C(C)C)cc3)n2)c1` [Compound 59, N ^2-(4-Isopropylphenyl)-6-(3-methylphenyl)-1,3,5-triazine-2,4-diamine] are 87%, 93% and 76%.
On the same counts, the results for `Cc1ccc(-c2nc(N)nc(Nc3ccccc3)n2)cc1` [Compound 60] are 84%, 100% and 100%.
On to `Cc1ccc(-c2nc(N)nc(Nc3ccc(Br)cc3)n2)cc1` [Compound 63], for which the viability at 10 µM in the assay with MDA-MB231 amounted to 87%; with SKBR-3 it was 100%; in the assay on MCF-7, 93%.
In the same order, the values of `Cc1ccc(Nc2nc(N)nc(-c3ccc(C)cc3)n2)cc1` [Compound 64] are 59%, 92% and 86%.
On the same counts, the results for `COc1ccc(Nc2nc(N)nc(-c3ccc(C)cc3)n2)cc1` [Compound 66] are 83%, 89% and 100%.
Turning to `Cc1ccc(-c2nc(N)nc(Nc3ccc(OC(F)(F)F)cc3)n2)cc1` [Compound 67], the viability at 10 µM amounted to 92% with MDA-MB231, 84% in the assay with SKBR-3 and 93% with MCF-7.
In the same order, the values of `Cc1ccc(-c2nc(N)nc(Nc3ccc(C(C)C)cc3)n2)cc1` [Compound 68] are 76%, 91% and 100%.
On the same counts, the results for `Cc1ccc(-c2nc(N)nc(Nc3cccnc3)n2)cc1` [Compound 69] are 74%, 79% and 88%.
Consider `COc1ccc(-c2nc(N)nc(Nc3ccc(F)cc3)n2)cc1` [Compound 72], for which the viability at 10 µM with MDA-MB231 is 68%; with SKBR-3, 100%; in the assay with MCF-7, 100%.
In the case of `COc1ccc(-c2nc(N)nc(Nc3ccc(Cl)cc3)n2)cc1` [Compound 75], the results for the viability at 10 µM in the assay on MDA-MB231, with SKBR-3 and with MCF-7 were 99%, 100% and 100%, respectively.
In the case of `COc1ccc(-c2nc(N)nc(Nc3ccc(Br)cc3)n2)cc1` [Compound 76], the figures for the viability at 10 µM in the assay on MDA-MB231, in the assay on SKBR-3 and in the assay with MCF-7 were 96%, 100% and 91%, respectively.
In the same order, the values of `COc1ccc(-c2nc(N)nc(Nc3ccc(OC(F)(F)F)cc3)n2)cc1` [Compound 79] are 74%, 84% and 95%.
On the same counts, the results for `COc1ccc(-c2nc(N)nc(Nc3ccc(C(C)C)cc3)n2)cc1` [Compound 80] are 92%, 86% and 100%.
On the same counts, the results for `Nc1nc(Nc2ccccc2)nc(-c2ccc(C(F)(F)F)cc2)n1` [Compound 82] are 55%, 97% and 96%.
On to `Nc1nc(Nc2ccccc2F)nc(-c2ccc(C(F)(F)F)cc2)n1` [Compound 83], for which the viability at 10 µM came out at 55% in the assay on MDA-MB231, 71% in the assay with SKBR-3 and 93% with MCF-7.
On the same counts, the results for `Nc1nc(Nc2ccc(Cl)cc2)nc(-c2ccc(C(F)(F)F)cc2)n1` [Compound 85] are 90%, 77% and 99%.
With `Cc1ccc(Nc2nc(N)nc(-c3ccc(C(F)(F)F)cc3)n2)cc1` [Compound 86], the results for the viability at 10 µM in the assay with MDA-MB231, with SKBR-3 and in the assay with MCF-7 were 54%, 95% and 83%, respectively.
Take `COc1ccccc1Nc1nc(N)nc(-c2ccc(C(F)(F)F)cc2)n1` [Compound 87]: the values for the viability at 10 µM in the assay with MDA-MB231, with SKBR-3 and in the assay with MCF-7 were 63%, 85% and 100%, respectively.
In the same order, the values of `COc1ccc(Nc2nc(N)nc(-c3ccc(C(F)(F)F)cc3)n2)cc1` [Compound 88] are 81%, 86% and 100%.
In the case of `Nc1nc(Nc2ccccc2)nc(-c2ccc(OC(F)(F)F)cc2)n1` [Compound 89], the viability at 10 µM in the assay on MDA-MB231 came to 59%; in the assay on SKBR-3, 90%; in the assay with MCF-7 it was 95%.
In the same order, the values of `Nc1nc(Nc2ccccc2F)nc(-c2ccc(OC(F)(F)F)cc2)n1` [Compound 90] are 60%, 80% and 90%.
In the same order, the values of `Nc1nc(Nc2ccccc2Cl)nc(-c2ccc(OC(F)(F)F)cc2)n1` [Compound 92] are 74%, 86% and 96%.
On the same counts, the results for `Nc1nc(Nc2ccc(Br)cc2)nc(-c2ccc(OC(F)(F)F)cc2)n1` [Compound 93] are 83%, 96% and 90%.
`Cc1ccc(Nc2nc(N)nc(-c3ccc(OC(F)(F)F)cc3)n2)cc1` [Compound 94]: the viability at 10 µM is 79% in the assay with MDA-MB231, 87% in the assay with SKBR-3 and 97% with MCF-7.
